Experimental findings from patent US7365069B2, “Pyrimidone derivatives” (Bexel Pharmaceuticals Inc., priority 2002, dated 2008) are described below.

In one data set the test system is NCI-H460. Nature of the data set: DTP human tumor cell line one-dose prescreen, NCI-H460. In kind it is cell-based. The note with it: 48 hours, Alamar Blue, test/control, read-out: Percentage growth Lung NCI-H460. As to the method:
(§1) DTP Human Tumor Cell Line Screen
(§2) Methodology of the In Vitro Cancer Screen
(§3) The current assay utilizes a 384 well plate format and fluorescent staining technologies resulting in greater screening capacity for testing of synthetic samples.
(§4) The cell lines of the cancer-screening panel are grown in RPMI 1640 medium containing 5% fetal bovine serum and 2 mM L-glutamine. For a typical screening experiment, cells are inoculated into 96 well microtiter plates in 100 μL. After cell inoculation, the microtiter plates are incubated at 37° C., 5% CO2, 95% air and 100% relative humidity for 24 h prior to addition of experimental drugs. The cells are plated a densities of 5000 cells/well (MCF7), 1000 cells/well (NC1—H460), and 7500 cells/well (SF-268) to allow for varying doubling time of the cell lines. Each plate contains all three cell lines, a series of dilutions of standard agents, total kill wells and appropriate controls. Plates are incubated under standard conditions for 24 hours prior to addition of experimental compounds or extracts.
(§5) Addition of Experimental Agents (Pure Compounds)
(§6) Experimental compounds are solubilized in dimethyl sulfoxide (DMSO) at 400-times the desired maximum test concentration (maximum final DMSO concentration of 0.25%) and stored frozen. Compounds are then diluted with complete media with 0.1% gentamicin sulfate (5 μl of test sample in 100% DMSO is added to 565 μl of complete medium). 20 μl of this solution is then dispensed into test wells containing 50 μl of cell suspension to yield a test concentration of 1.00E-04M.
(§7) Two standard drugs, meaning that their activities against the cell lines are well documented, are tested against each cell line: NSC 19893 (5-FU) and NSC 123127 (Adriamycin).
(§8) After compound addition, plates are incubated at standard conditions for 48 hours, 10 μl/well Alamar Blue is added and the plates are incubated for an additional 4 hours. Fluorescence is measured using an excitation wavelength of 530 nm and an emission wavelength of 590 nm.
(§9) Calculation of Percent Test Cell Growth/Control (Untreated) Cell Growth (T/C)
(§10) Percent growth is calculated on a plate-by-plate basis for test wells relative to control wells. Percent Growth is expressed as the ratio of fluorescence of the test well to the average fluorescence of the control wells x 100.

A further data set concerns SF-268. The experiment in a line: DTP human tumor cell line one-dose prescreen, SF-268. In kind it is cell-based. The note with it: 48 hours, Alamar Blue, test/control, read-out: Percentage growth CNS SF-268. The procedure: as §1, §2, §3, §4, §5, §6, §7, §8, §9, §10
The next data set concerns MCF-7. Nature of the data set: DTP human tumor cell line one-dose prescreen, MCF-7. The note with it: MCF7, 48 hours, Alamar Blue, test/control, read-out: Percentage growth Breast MCF-7. In kind it is cell-based. As to the method:
as §1, §2, §3, §4, §5, §6, §7, §8, §9, §10

The next data set concerns IL-6. Nature of the data set: IL-6 production in LPS-stimulated human whole blood. In kind it is cell-based. The note with it: LPS 4 h. As to the method:
This assay determines the effect of test compounds on the production of IL-6 from human whole blood. Compounds are tested for their ability to downregulate the production of IL-6 in activated whole blood. The test compounds are pre-incubated for 15 minutes at 37° C. and then stimulated with Lipopolysaccharide (Salmonella abortus equi, 1 μg/ml) for 4 h at 37° C. in 5% CO2. The levels of Interleukin-6 are estimated using Enzyme linked Immunosorbent assay performed in a 96 well format as per the procedure of the manufacturer (Cayman Chemical, Ann Arbor, USA).

The next data set concerns TNF-α. Nature of the data set: TNF-α production in LPS-stimulated human whole blood. In kind it is cell-based. The note with it: 1 μM, LPS 4 h. As to the method: Tumor Necrosis Factor Alpha (TNF-α)
This assay determines the effect of test compounds on the production of TNF-α in human whole blood. TNF-α assay is carried out as described by Armin hatzelmann and Christian Schudt (J Pharm Exp Ther 297, 261, 2001). Compounds are tested for their ability to inhibit the activity of TNF-α in human whole blood. The test compounds are pre-incubated for 15 minutes at 37° C. and then stimulated with Lipopolysaccharide (Salmonella abortus equi, 1 μg/ml) for 4 h at 37° C. in 5% CO2. The levels of TNF-α are estimated using Enzyme linked Immunosorbent assay performed in a 96 well format as per the procedure of the manufacturer (Cayman Chemical, Ann Arbor, USA).

A further data set deals with T1, COX-2 (Homo sapiens, UniProt P35354).
T1 construct: incubation of human blood with lipopolysaccharide (LPS), which induces COX-2 production in the blood; endogenous in cells; host or cells: fresh human whole blood from volunteers, treated with aspirin and then LPS
T1 sequence (P35354 18-604): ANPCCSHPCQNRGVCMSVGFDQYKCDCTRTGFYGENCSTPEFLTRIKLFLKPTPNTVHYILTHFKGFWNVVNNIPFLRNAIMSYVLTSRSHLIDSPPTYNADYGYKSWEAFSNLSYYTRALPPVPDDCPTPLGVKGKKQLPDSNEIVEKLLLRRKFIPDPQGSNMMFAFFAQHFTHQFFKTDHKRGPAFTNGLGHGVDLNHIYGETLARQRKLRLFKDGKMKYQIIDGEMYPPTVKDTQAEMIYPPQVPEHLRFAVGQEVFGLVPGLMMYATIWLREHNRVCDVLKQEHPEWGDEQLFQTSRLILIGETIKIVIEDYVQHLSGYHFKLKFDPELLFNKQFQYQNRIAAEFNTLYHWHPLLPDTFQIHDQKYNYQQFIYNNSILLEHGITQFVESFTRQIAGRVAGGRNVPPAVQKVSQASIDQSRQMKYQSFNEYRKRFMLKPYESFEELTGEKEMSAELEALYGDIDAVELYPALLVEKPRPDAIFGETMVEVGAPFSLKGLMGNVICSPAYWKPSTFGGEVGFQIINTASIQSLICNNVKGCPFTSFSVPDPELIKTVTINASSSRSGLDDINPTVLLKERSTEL
Nature of the data set: Human whole blood assay, COX-2 inhibition (PGE2 ELISA after LPS). In kind it is cell-based. The note with it: LPS 24 h. As to the method: In Vivo Evaluation of Cyclooxygenase-2 (COX-2) Inhibition Activity
The COX-2 inhibition activities of the compounds illustrated in the examples are determined by the following method.
Human whole blood provides a protein and cell rich milieu appropriate for the study of biochemical efficacy of anti-inflammatory compounds such as selective COX-2 inhibitors. […] This is correlating with the observation that COX-2 inhibitors have no effect on prostaglandin E2 (PGE2) production in normal blood. These inhibitors are active only after incubation of human blood with lipopolysaccharide (LPS), which induces COX-2 production in the blood.
Fresh blood is collected in tubes containing potassium EDTA by vein puncture from make volunteers. The subjects should have no apparent inflammatory conditions and not taken NSAIDs for at least 7 days prior to blood collection. Blood is treated with aspirin in vitro (10 μg/ml, at time zero) to inactivate COX-1, and then with LPS (10 μg/ml) along with test agents or vehicle. The blood is incubated for 24 h at 37° C., after which the tubes are centrifuged, the plasma is separated and stored at −80° C. (J. Pharmacol. Exp. Ther, 271, 1705, 1994; Proc. Natl. Acad. Sci. USA., 96, 7563, 1999). The plasma is assayed for PGE2 using Cayman ELISA kit as per the procedure outlined by the manufacturer (Cayman Chemicals, Ann Arbor, USA).

As to `CSc1nc(-c2ccccn2)n(-c2ccc(F)cc2)c(=O)c1C#N` [Example 29, 5-cyano-1-(4-fluorophenyl)-4-(methylthio)-6-oxo-2-pyridin-2-yl-1,6-dihydropyrimidine], the melting point was 221 to 227 °C. Moreover, the activity at 100 µM in the data set on NCI-H460 was 23%. Besides, the activity at 100 µM in the data set on SF-268 was 92%. Besides, in the data set on MCF-7, the activity at 100 µM was found to be 80%.
In turn, `CSc1ccc(-n2c(-c3ccccc3)nc(SC)c(C#N)c2=O)cc1` [Example 3, 5-cyano-2-phenyl-4-(methylthio)-1-[4-(methylthio)phenyl]-6-oxo-1,6-dihydropyrimidine] gave a melting point of 204 to 205 °C. In the data set on NCI-H460, the activity at 100 µM turned out to be 30%. Further, in the data set with SF-268, the activity at 100 µM was found to be 90%. The same molecule gave an inhibition at 0.25 µM with IL-6 (0.25 μM) of 11.3%. Moreover, the activity at 100 µM in the data set on MCF-7 was 82%.
Regarding `CSc1nc(-c2cccnc2)n(-c2ccc(F)cc2)c(=O)c1C#N` [Example 26, 5-cyano-1-(4-fluorophenyl)-4-(methylthio)-6-oxo-2-pyridin-3-yl-1,6-dihydropyrimidine], the melting point is 190 to 193 °C. Besides, the activity at 100 µM in the data set on NCI-H460 is 79%. In the data set with TNF-α, this molecule had an inhibition at 1 µM of 30.6%. The activity at 100 µM with SF-268 was determined as 99%. Moreover, in the data set with MCF-7, the activity at 100 µM came to 74%.
Turning to `CSc1ccc(-n2c(-c3ccccn3)nc(SC)c(C#N)c2=O)cc1` [Example 30, 5-cyano-4-(methylthio)-1-[4-(methylthio)phenyl]-6-oxo-2-pyridin-2-yl-1,6-dihydropyrimidine], the melting point is 158 to 161 °C. Besides, in the data set on NCI-H460, the activity at 100 µM is 27%. In the data set with SF-268, the activity at 100 µM worked out at 86%. For the same molecule, the activity at 100 µM in the data set with MCF-7 was determined as 38%. Also, on COX-2, 1 µM produced 14.9% inhibition.
With `CSc1ccc(-n2c(-c3ccncc3)nc(SC)c(C#N)c2=O)cc1` [Example 28, 5-cyano-4-(methylthio)-1-[4-(methylthio)phenyl]-6-oxo-2-pyridin-4-yl-1,6-dihydropyrimidine], the melting point lay within 227 to 229 °C. Further, the activity at 100 µM with NCI-H460 was determined as 20%. The activity at 100 µM in the data set on SF-268 amounted to 63%. For the same molecule, the activity at 100 µM in the data set on MCF-7 was found to be 48%.
As for `CSc1ccc(-c2nc(SC)c(C(=O)O)c(=O)n2-c2ccc(C)cc2)cc1` [Example 8, 5-carboxy-2-[(4-methylthio)phenyl]-4-(methylthio)-1-(4-methylphenyl)-6-oxo-1,6-dihydropyrimidine], the melting point was in the range of 173 to 175 °C. Moreover, the activity at 100 µM in the data set on NCI-H460 stood at 51%. The activity at 100 µM with SF-268 is 89%. In the data set on IL-6, this molecule yielded an inhibition at 1 µM of 69.4%. Further, the activity at 100 µM in the data set on MCF-7 worked out at 77%. Besides, the inhibition at 1 µM on COX-2 stood at 40.1%.
Molecule `CCOC(=O)c1c(SC)nc(-c2ccc(SC)cc2)n(-c2ccc(C)cc2)c1=O` [Example 41, ethyl 1-(4-methylphenyl)-4-(methylthio)-2-[4-(methylthio)phenyl]-6-oxo-1,6-dihydropyrimidine-5-carboxylate] yielded a melting point of 153 to 155 °C. Besides, in the data set on NCI-H460, the activity at 100 µM came out at 86%. The activity at 100 µM in the data set with SF-268 is 89%. At 10 µM the inhibition in the data set on IL-6 (10 μM) was 21.9%. Moreover, the activity at 100 µM in the data set on MCF-7 stood at 85%.
In the case of `CCOc1ccc(-n2c(-c3ccc(SC)cc3)nc(SC)c(C#N)c2=O)cc1` [Example 21, 5-cyano-1-(4-ethoxyphenyl)-4-(methylthio)-2-[4-(methylthio)phenyl]-6-oxo-1,6-dihydropyrimidine], the melting point lay within 209 to 213 °C. Moreover, in the data set on NCI-H460, the activity at 100 µM was determined as 92%. In the data set with TNF-α, this molecule registered an inhibition at 1 µM of 46.6%. In the data set on SF-268, the activity at 100 µM came out at 91%. This molecule also yielded an inhibition at 1 µM with IL-6 of 17.3%. For the same molecule, in the data set on MCF-7, the activity at 100 µM was 84%. For the same molecule, on COX-2 (0.25 μM), the inhibition at 0.25 µM was 7.79%.
For the molecule `CSc1ccc(-c2nc(SC)c(C#N)c(=O)n2-c2ccc(Cl)cc2)cc1` [Example 18, 1-(4-chlorophenyl)-5-cyano-4-(methylthio)-2-[4-(methylthio)phenyl]-6-oxo-1,6-dihydropyrimidine], the melting point lay in the range of 203 to 205 °C. Also, in the data set on NCI-H460, the activity at 100 µM turned out to be 98%. Also, in the data set with TNF-α, at 1 µM the inhibition was 35.7%. For the same molecule, the activity at 100 µM with SF-268 is 86%. Moreover, in the data set with IL-6 (100 μM), the inhibition at 100 µM came out at 44.8%. Moreover, in the data set with MCF-7, the activity at 100 µM was 89%.
